Test results: PubChem BioAssay AID1963867 (Molecular Pharmacology Branch, DTP, NCI, 2024)

Tested on: KRAS-mutant PDC tumor spheroid with HUVEC/MSC, viability
Experiment: Anticancer human tumor 327498-153-R-J2-PDC patient-derived uterine carcinosarcoma cell line growth inhibition [KRAS2]
Details: for IC50: curve of first compound; for viability, T/C: stronger effect = lower value
Outline: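 KRAS-mutant tumor cells were grown as spheroids with HUVEC endothelial cells and human MSCs as stroma. Targeted agents were tested alone and with KRAS pathway inhibitors. Doses started at or near clinical Cmax, or 10 microM, descending half-log.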

[1] = second compound 0.0316 µM, first compound 0.0316 µM
[2] = second compound 0.0316 µM, first compound 0.1 µM
[3] = second compound 0.0316 µM, first compound 0.316 µM
[4] = second compound 0.0316 µM, first compound 1 µM
[5] = second compound 0.0316 µM, first compound 3.16 µM
[6] = second compound 0.0316 µM, first compound 10 µM
[7] = second compound 0.1 µM, first compound 0.0316 µM
[8] = second compound 0.1 µM, first compound 0.1 µM
[9] = second compound 0.1 µM, first compound 0.316 µM
[10] = second compound 0.1 µM, first compound 1 µM
[11] = second compound 0.1 µM, first compound 3.16 µM
[12] = second compound 0.1 µM, first compound 10 µM
[13] = second compound 0.316 µM, first compound 0.0316 µM
[14] = second compound 0.316 µM, first compound 0.1 µM
[15] = second compound 0.316 µM, first compound 0.316 µM
[16] = second compound 0.316 µM, first compound 1 µM
[17] = second compound 0.316 µM, first compound 3.16 µM
[18] = second compound 0.316 µM, first compound 10 µM
[19] = second compound 1 µM, first compound 0.0316 µM
[20] = second compound 1 µM, first compound 0.1 µM
[21] = second compound 1 µM, first compound 0.316 µM
[22] = second compound 1 µM, first compound 1 µM
[23] = second compound 1 µM, first compound 3.16 µM
[24] = second compound 1 µM, first compound 10 µM
[25] = second compound 3.16 µM, first compound 0.0316 µM
[26] = second compound 3.16 µM, first compound 0.1 µM
[27] = second compound 3.16 µM, first compound 0.316 µM
[28] = second compound 3.16 µM, first compound 1 µM
[29] = second compound 3.16 µM, first compound 3.16 µM
[30] = second compound 3.16 µM, first compound 10 µM
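Also: spheroids exposed to agents for seven days before reading.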
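For viability, T/C in this document: 100% = DMSO vehicle wells so lower means fewer viable cells.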

In the case of COc1cc(Nc2ncc3c(n2)-c2ccc(Cl)cc2C(c2c(F)cccc2OC)=NC3)ccc1C(=O)O + C=CC(=O)N1CCN(c2nc(OCC3CCCN3C)nc3c2CCN(c2cccc4cccc(C)c24)C3)CC1CC#N, the IC50 (second compound 0.0316 µM) is reported as under 0.0316 µM, the IC50 (second compound 0.1 µM) is reported as under 0.0316 µM and the IC50 (second compound 0.316 µM) is reported as under 0.0316 µM. The IC50 (second compound 1 µM) was under 0.0316 µM, the IC50 (second compound 3.16 µM) was under 0.0316 µM and the viability, T/C [1] was 13.7%. It also gave a viability, T/C [2] of 11.9%, a viability, T/C [3] of 11.5% and a viability, T/C [4] of 9.41%. For the same compound, the viability, T/C [5] was 11.3%, the viability, T/C [6] was 10.4% and the viability, T/C [7] was 12.7%. For the same compound, the viability, T/C [8] was 11.3%, the viability, T/C [9] was 10.2% and the viability, T/C [10] was 9.02%. The viability, T/C [11] was 12.1%, the viability, T/C [12] was 10.4% and the viability, T/C [13] was 10.2%. The viability, T/C [14] was 8.78%, the viability, T/C [15] was 8.53% and the viability, T/C [16] was 8.2%. It also gave a viability, T/C [17] of 9.27%, a viability, T/C [18] of 9.77% and a viability, T/C [19] of 10.3%. For the same compound, the viability, T/C [20] was 8.65%, the viability, T/C [21] was 7.42% and the viability, T/C [22] was 6.83%. For the same compound, the viability, T/C [23] was 7.63%, the viability, T/C [24] was 6.7% and the viability, T/C [25] was 2.49%. It also gave a viability, T/C [26] of 2.27%, a viability, T/C [27] of 1.67% and a viability, T/C [28] of 0.13%. It also gave a viability, T/C [29] of 0.95% and a viability, T/C [30] of 0.23%.
For COc1cc2nccc(Oc3ccc(NC(=O)C4(C(=O)Nc5ccc(F)cc5)CC4)cc3)c2cc1OC + C=CC(=O)N1CCN(c2nc(OCC3CCCN3C)nc3c2CCN(c2cccc4cccc(C)c24)C3)CC1CC#N, the IC50 (second compound 0.0316 µM) was 1.29 µM, the IC50 (second compound 0.1 µM) was under 0.0316 µM and the IC50 (second compound 0.316 µM) was under 0.0316 µM. The IC50 (second compound 1 µM) was under 0.0316 µM, the IC50 (second compound 3.16 µM) was under 0.0316 µM and the viability, T/C [1] was 60.9%. The viability, T/C [2] was 55.4%, the viability, T/C [3] was 55.6% and the viability, T/C [4] was 63.9%. For the same compound, the viability, T/C [5] was 18.4%, the viability, T/C [6] was 0.28% and the viability, T/C [7] was 48.4%. It also gave a viability, T/C [8] of 50%, a viability, T/C [9] of 50.4% and a viability, T/C [10] of 47.8%. It also gave a viability, T/C [11] of 17.3%, a viability, T/C [12] of 0.84% and a viability, T/C [13] of 45%. The viability, T/C [14] was 48.5%, the viability, T/C [15] was 52.1% and the viability, T/C [16] was 45%. For the same compound, the viability, T/C [17] was 15%, the viability, T/C [18] was 0.62% and the viability, T/C [19] was 44.1%. For the same compound, the viability, T/C [20] was 40.3%, the viability, T/C [21] was 39.3% and the viability, T/C [22] was 43.3%. It also gave a viability, T/C [23] of 11.1%, a viability, T/C [24] of 0.15% and a viability, T/C [25] of 0.22%. It also gave a viability, T/C [26] of 0.17%, a viability, T/C [27] of 0.17% and a viability, T/C [28] of 0.16%. For the same compound, the viability, T/C [29] was 0.13% and the viability, T/C [30] was 0.24%.
Work on O=C(c1cc(Cc2n[nH]c(=O)c3ccccc23)ccc1F)N1CCN(C(=O)C2CC2)CC1 + C=CC(=O)N1CCN(c2nc(OCC3CCCN3C)nc3c2CCN(c2cccc4cccc(C)c24)C3)CC1CC#N yielded an IC50 (second compound 0.0316 µM) of 1.01 µM, an IC50 (second compound 0.1 µM) of 0.711 µM and an IC50 (second compound 0.316 µM) of 0.49 µM. It also gave an IC50 (second compound 1 µM) of 0.195 µM, an IC50 (second compound 3.16 µM) of under 0.0316 µM and a viability, T/C [1] of 64.1%. The viability, T/C [2] was 74.5%, the viability, T/C [3] was 104% and the viability, T/C [4] was 50.3%. For the same compound, the viability, T/C [5] was 26.2%, the viability, T/C [6] was 16.8% and the viability, T/C [7] was 61.5%. It also gave a viability, T/C [8] of 58.4%, a viability, T/C [9] of 56.4% and a viability, T/C [10] of 47.5%. For the same compound, the viability, T/C [11] was 25.6%, the viability, T/C [12] was 15.7% and the viability, T/C [13] was 58.8%. For the same compound, the viability, T/C [14] was 56.6%, the viability, T/C [15] was 51.2% and the viability, T/C [16] was 44.2%. It also gave a viability, T/C [17] of 20.2%, a viability, T/C [18] of 14.4% and a viability, T/C [19] of 47.8%. The viability, T/C [20] was 56.3%, the viability, T/C [21] was 47.1% and the viability, T/C [22] was 38.8%. For the same compound, the viability, T/C [23] was 19.2%, the viability, T/C [24] was 13.8% and the viability, T/C [25] was 2.26%. For the same compound, the viability, T/C [26] was 2.16%, the viability, T/C [27] was 2.51% and the viability, T/C [28] was 2.55%. For the same compound, the viability, T/C [29] was 3.25% and the viability, T/C [30] was 0.24%.
